The test system of experiment [1] is peritoneal macrophages isolated from C3H/HeN mice. The experiment is described as follows: IL-12 production in peritoneal macrophages from C3H/HeN mice (LPS + IFN-γ). The experiment is classed as cell-based. As to conditions: LPS 200 ng/ml, IFN-γ 2 U/ml, 24 hours, various L3 concentrations (FIG. 14). The method, then: Ice-cooled phosphate buffered saline (PBS) was injected into abdominal cavities of C3H/HeN mice. After the abdomen of each mouse was massaged, the PBS was collected and centrifuged to obtain macrophages. A cell suspension was prepared by suspending the obtained macrophages in RPMI1640 medium (Sigma) containing 200 ng/ml of LPS, 2 U/ml of recombinant mouse interferon-γ (IFN-γ) and 10% fetal bovine serum at a concentration of 1×10^6 cells/ml. 100 μl of the cell suspension was dispensed on a 96-well flat-bottom plate and further 100 μl of L3 solution of which concentration was adjusted to be twice the final concentration in the RPMI1640 medium was added thereto. Then, the cells were cultured at 37° C. in the presence of 5% CO2 for 24 hours.
(§1) Subsequently, the plate was centrifuged to collect the culture supernatant. The IL-12 concentration in the supernatant was measured as described above.

Experiment [2] has as its system MRL-lpr/lpr mice. Kind of experiment: Hematological test: white blood cell count (WBC) in blood of MRL-lpr/lpr mice. Type of experiment: in vivo. The conditions noted are these: day before autopsy. The text has this:
(§2) MRL lpr/lpr mice, C57BL/6 mice and ICR mice as normal controls were purchased from Japan Charles River Co., Ltd. and preliminarily maintained for several weeks before divided into groups. Blood was collected from the orbital venous plexus, and they were allocated according to the plasma creatinine level (CRE) as a first marker so that there would be no difference in the average value and the standard deviation for the creatinine level among the groups. They were also grouped so that there would be no difference in the plasma nitrogen level (BUN), white blood cell count (WBC), platelet count (PLT) and weight between groups as far as possible.
The test substances were administered from the next day of the grouping. Each of the test substances was dissolved in distilled water at a predetermined concentration to prepare a solution to be administered. The solution was intermittently administered 3 times per week for 4 weeks (total 12 doses). […]
Blood was collected from the orbital venous plexus at the time of the grouping and on the day before the autopsy. The white blood cell count (WBC) was measured by using an automatic cytometer for multiple test items (Sysmex K-2000: Toa Medical Electronics).
(§3) The average value and the standard deviation were calculated for the measured values obtained as above and the statistical significance was analyzed by Williams' multiple comparison test. […]

The subject of experiment [3] is synovial cells collected from human rheumatoid arthritis patients. Kind of experiment: IL-12 p70 production in synovial cells from rheumatoid arthritis patients (LPS + IFN-γ). The experiment is classed as cell-based. The conditions noted are these: LPS 500 ng/ml, IFN-γ 50 U/ml. The procedure: A cell suspension was prepared by suspending synovial cells collected from human rheumatoid arthritis patients in RPMI1640 medium (Sigma) containing 500 ng/ml of LPS, 50 U/ml of recombinant mouse interferon-γ (IFN-γ) and 10% fetal bovine serum at a concentration of 1×10^6cells/ml.
100 μl of the aforementioned cell suspension was dispensed to a 96-well flat-bottom plate and further 100 μl of L4 solution of which concentration was adjusted to be twice the final concentration in the RPMI1640 medium was added thereto. Then, the cells were cultured at 37° C. in the presence of 5% CO2 for 24 hours.
as §1

Experiment [4] has as its system peritoneal macrophages isolated from MRL mice. The experiment is described as follows: LPS-stimulated IL-12 p70 production in peritoneal macrophages from MRL lpr/lpr mice. Type of experiment: cell-based. As to conditions: for IL-12 p70 production, simultaneous treatment with LPS and test substance: LPS 100 ng/ml, various concentrations, 8-week-old and 39-week-old MRL mice (FIG. 6; L4L4 FIG. 12). The method, then:
Five to seven milliliters of ice-cooled Hank's balanced salt solution was injected in the abdominal cavities of 8- to 39-week-old MRL lpr/lpr mice and extracted 5 minutes later to collect resident peritoneal cells. The collected cells were cultured overnight in RPMI medium contained in a 96-well flat-bottom plate at 37° C. in the presence of 5% CO2. After the cultivation, non-adherent cells were removed and adherent cells were used as peritoneal macrophages for the experiment.
The cells were treated with lipopolysaccharide (LPS, List Biological Laboratories, Inc.) for 24 hours to stimulate IL-12 production. The concentration of IL-12 p70 in the cell culture supernatant was measured by using an IL-12 p70 ELISA kit (Endogen, Inc.) to evaluate the IL-12 production. As for the measured values, the average value and the standard deviation were obtained. Unless otherwise mentioned, the statistical significance was examined by the Williams' multiple comparison test.
The stimulation was performed for 24 hours in the medium containing LPS (100 ng/ml) and various concentrations of L4, and then the IL-12 production was evaluated.
Macrophages were treated with 100 ng/ml of LPS for 0, 2 or 6 hours, and then the medium was replaced with a fresh medium containing 1000 ng/ml of L4 or a fresh medium only (L4(-)) (consequently, IL-12 produced by the pretreatment was removed). 24 hours after the replacement of the medium, the IL-12 production was evaluated.
First, macrophages were treated with L4 at various concentrations for 24 hours and the medium was replaced with a medium containing 100 ng/ml of LPS. 24 hours after the replacement of the medium, the IL-12 production was evaluated.
The IL-12 production in the macrophages of MRL-lpr/lpr mice, pretreated with or without 1000 ng/ml of L4 for 24 hours then treated with 100 ng/ml of LPS for 24 hours (L4 pretreatment), and the treated with 100 ng/ml LPS together with or without 1000 ng/ml of L4 (simultaneous treatment), were compared. In FIG. 11, * and ** indicate that there was statistical significance at levels of p<0.05 and p<0.01, respectively, according to the Student's t-test.

The subject of experiment [5] is IL-12. Kind of experiment: Plasma IL-12 level (IL-12 p70 ELISA) in MRL-lpr/lpr mice after administration. Type of experiment: in vivo. The conditions noted are these: day before autopsy.
Description: Plasma IL-12 levels were examined using MRL-lpr/lpr mice treated with and without L4. Macrophages from MRL-lpr/lpr mice are known to markedly produce IL-12 and their serum IL-12 level is high (J. Exp. Med., 183, pp. 1447-1459 (1996)).
as §2
The test substances were administered from the next day of the grouping. […]
Blood was collected from the orbital venous plexus at the time of the grouping and on the day before the autopsy. The IL-12 concentration in blood plasma was measured by using an IL-12 p70 ELISA kit (Endogen, Inc.).
as §3

Experiment [6] has as its system peritoneal macrophages isolated from C57BL/6 mice. Kind of experiment: LPS-stimulated IL-12 p70 production in peritoneal macrophages from C57BL/6 mice. Type of experiment: cell-based.
Experiment [7] deals with MRL-lpr/lpr mice. Kind of experiment: Biochemical blood test: plasma creatinine (CRE) and urea nitrogen (BUN) in MRL-lpr/lpr mice. Type of experiment: in vivo. As to conditions: Example 3; L4 3.2 mg/kg i.n.; 6 weeks; day before autopsy (FIG. 4). The procedure:
9-Week old MRL lpr/lpr mice, C57BL/6 mice and ICR mice were purchased from Japan Charles River Co., Ltd. and preliminarily maintained for 6 weeks before divided into groups. The groups used were as follows.
Each of the test substance was dissolved in distilled water at a predetermined concentration to prepare a solution to be administered. The solution was intermittently administered 3 times per week for 6 weeks (total […]). Observation was performed for 45 days from the start of administration through the autopsy. Other conditions and methods were the same as those of Example 2.
Blood was collected from the orbital venous plexus and plasma creatinine level (CRE) and plasma urea nitrogen level (BUN) were measured by using an automatic analyzer for clinical chemistry (COBAS MIRA S: Nippon Roche) at the time of the grouping and on the day before the autopsy.

Each structure is given as a SMILES string.

On to `CC(=O)N[C@H]1C(O)O[C@H](CO)[C@@H](O[C@@H]2O[C@H](COS(=O)(=O)O)[C@H](O)[C@H](O)[C@H]2O)[C@@H]1O` (stereo partly drawn) [L3, Gal(6S)β1-4GlcNAc], for which, in experiment [1], the “IL-12 production of macrophages” value is reported as “inhibited IL-12 production of macrophages in a dose-dependent manner”.
As to `CC(=O)N[C@H]1C(O)O[C@H](COS(=O)(=O)O)[C@@H](O[C@@H]2O[C@H](COS(=O)(=O)O)[C@H](O)[C@H](O)[C@H]2O)[C@@H]1O` (stereo partly drawn) [L4, Gal(6S)β1-4GlcNAc(6S)], the “white blood cell count (WBC) in blood” value in experiment [2] (Example 2, low dose L4 administered groups, 3 times per week for 4 weeks, vs DW group, p<0.05 (FIG. 1)) was “significant inhibition of the increase in WBC”; in experiment [2] (Example 3, L4 3.2 mg/kg i.n., 3 times per week for 6 weeks, p<0.05 (FIG. 3)), “significant inhibition of the increase in WBC”. In addition, in experiment [3] (1000 ng/ml L4, 24 hours (FIG. 13)), the “IL-12 production in synovial cells at 1000 ng/ml” value is “almost halved”. Moreover, in experiment [3] (24 hours, various L4 concentrations (FIG. 13)), the “IL-12 production in synovial cells” value is listed as “tendency that addition of L4 inhibited IL-12 production”. In addition, the “IL-12 p70 production, L4 pretreatment compared with simultaneous treatment” value in experiment [4] (1000 ng/ml L4, 100 ng/ml LPS, 24 hours (FIG. 11)) is given as “inhibits IL-12 production more efficiently compared with the simultaneous treatment”. In addition, in experiment [4] (L4 100 ng/ml or more, 24 hours, then LPS 100 ng/ml 24 hours (FIG. 9)), the “IL-12 p70 production, stimulation with LPS after pretreatment with L4, high doses” value is recorded as “almost completely inhibited”. For the same molecule, the “IL-12 p70 production, stimulation with LPS after pretreatment with L4” value is given as “L4 pretreatment inhibits the IL-12 production” in experiment [4] (L4 various concentrations 24 hours, then LPS 100 ng/ml 24 hours (FIG. 9)) and “The same results were also obtained” in experiment [6] (C57BL/6 mice, pretreated with L4 for 36 hours (FIG. 10)). For the same molecule, in experiment [4] (LPS 100 ng/ml for 2 and 6 hours, then 1000 ng/ml L4, 24 hours (FIG. 8)), the “IL-12 p70 production, treatment with L4 after preliminary stimulation with LPS” value was “Inhibition of the IL-12 production by L4 was also observed”. Moreover, the “IL-12 p70 production, simultaneous treatment with LPS and test substance” value in experiment [4] (24 hours) is given as “dose-dependent inhibitory effect on the IL-12 production”. Further, the “IL-12 level in plasma” value is “significant inhibition of the increase in IL-12” in experiment [5] (Example 2, L4 1.6 mg/kg i.n. and 80 mg/kg p.o., 3 times per week for 4 weeks, p<0.05/p<0.01 (FIG. 2)); “significant inhibition of the increase in the IL-12” in experiment [5] (Example 3, L4 3.2 mg/kg i.n., 3 times per week for 6 weeks, p<0.01 (FIG. 5)). Moreover, in experiment [6] (LPS 100 ng/ml, 24 hours, various concentrations of L4, C57BL/6 mice (FIG. 7)), the “IL-12 p70 production, simultaneous treatment with LPS and L4” value is on record as “The same result was also obtained”. Also, the “plasma creatinine level (CRE)” value in experiment [7] is on record as “significant decrease”. The “plasma urea nitrogen level (BUN)” value in experiment [7] was “significant decrease”.
On to `CC(=O)NC1C(O)OC(COS(=O)(=O)[O-])C(OC2OC(COS(=O)(=O)[O-])C(O)C(OC3OC(COS(=O)(=O)[O-])C(OC4OC(COS(=O)(=O)[O-])C(O)C(O)C4O)C(O)C3NC(C)=O)C2O)C1O.[Na+].[Na+].[Na+].[Na+]` [L4L4, Gal(6S)β1-4GlcNAc(6S)β1-3Gal(6S)β1-4GlcNAc(6S)], for which, in experiment [4] (24 hours), the “IL-12 p70 production, simultaneous treatment with LPS and test substance” value is reported as “The same result was obtained”.
